For 5 compounds, IC50 and Ki results are on record in ChEMBL document CHEMBL1909046, “DrugMatrix in vitro pharmacology data”.

As a reminder, the IC50 is the midpoint of a concentration-inhibition curve. Broadly, the Ki is the equilibrium dissociation constant of an inhibitor or competing ligand from its target.

Assay [1] deals with T1, C-X-C chemokine receptor type 2 (Homo sapiens, UniProt P25025).
T1 sequence (P25025 whole entry): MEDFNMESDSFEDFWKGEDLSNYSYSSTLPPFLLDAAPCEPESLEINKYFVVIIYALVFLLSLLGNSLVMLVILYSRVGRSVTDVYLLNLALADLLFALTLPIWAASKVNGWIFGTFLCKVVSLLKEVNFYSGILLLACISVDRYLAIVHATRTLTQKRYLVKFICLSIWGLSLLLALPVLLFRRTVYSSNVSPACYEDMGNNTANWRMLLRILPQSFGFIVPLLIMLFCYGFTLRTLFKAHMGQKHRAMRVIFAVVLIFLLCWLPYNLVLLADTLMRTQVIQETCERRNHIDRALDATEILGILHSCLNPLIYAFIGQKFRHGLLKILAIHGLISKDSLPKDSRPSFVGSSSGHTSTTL
The format is cell membranes, CHO-K1, Membrane.

Assay [2] concerns the target T2, Alpha-2C adrenergic receptor (Homo sapiens, UniProt P18825).
T2 sequence (P18825 whole entry): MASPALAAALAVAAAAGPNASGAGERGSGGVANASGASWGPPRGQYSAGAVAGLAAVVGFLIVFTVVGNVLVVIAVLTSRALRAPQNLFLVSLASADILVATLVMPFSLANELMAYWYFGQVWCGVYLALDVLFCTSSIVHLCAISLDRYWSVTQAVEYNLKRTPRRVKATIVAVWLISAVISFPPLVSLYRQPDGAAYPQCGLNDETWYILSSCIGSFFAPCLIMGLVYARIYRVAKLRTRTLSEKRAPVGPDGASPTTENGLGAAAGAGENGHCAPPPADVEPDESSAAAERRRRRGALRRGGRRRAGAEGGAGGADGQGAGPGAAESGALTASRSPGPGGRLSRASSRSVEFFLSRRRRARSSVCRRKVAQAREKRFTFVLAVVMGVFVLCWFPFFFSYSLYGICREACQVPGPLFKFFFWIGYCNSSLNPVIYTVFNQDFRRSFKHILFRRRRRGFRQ
Briefly: DRUGMATRIX: Adrenergic Alpha-2C radioligand binding (ligand: [3H] MK-912). The format is cell membranes, Sf9, Membrane. The settings on record: sf9.

The target of assay [3] is T3, C-X-C chemokine receptor type 1 (Homo sapiens, UniProt P25024). Also: in other assays of this panel Not Active means under 50% inhibition at 10 µM.
T3 sequence (P25024 whole entry): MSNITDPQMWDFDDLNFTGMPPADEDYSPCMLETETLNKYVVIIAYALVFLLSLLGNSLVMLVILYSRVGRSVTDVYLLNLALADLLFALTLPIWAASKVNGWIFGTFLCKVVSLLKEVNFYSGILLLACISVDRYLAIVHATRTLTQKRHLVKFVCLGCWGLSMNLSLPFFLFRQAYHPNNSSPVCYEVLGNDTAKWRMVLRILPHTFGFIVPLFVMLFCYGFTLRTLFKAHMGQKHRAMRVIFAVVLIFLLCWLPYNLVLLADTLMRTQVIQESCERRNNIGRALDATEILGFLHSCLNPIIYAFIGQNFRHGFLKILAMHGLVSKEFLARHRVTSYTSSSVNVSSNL

Assay [4] deals with Protein kinase C alpha type (Homo sapiens, UniProt P17252). It counts as cell-based. The settings on record: sf9.
Assay [5] has as its target Melanocortin receptor 4 (Homo sapiens, UniProt P32245). The format is cell membranes, Membrane. The settings on record: hek293. Also: in other assays of this panel Not Active means under 50% inhibition at 10 µM.
Assay [6] in a line: DRUGMATRIX: Serotonin (5-Hydroxytryptamine) 5-HT3 radioligand binding (ligand: [3H] GR-65630). The settings on record: hek293; Not Active = under 50% inhibition at 10 µM. The format is cell membranes, Membrane.

Sequence of Melanocortin receptor 4 (P32245 whole entry): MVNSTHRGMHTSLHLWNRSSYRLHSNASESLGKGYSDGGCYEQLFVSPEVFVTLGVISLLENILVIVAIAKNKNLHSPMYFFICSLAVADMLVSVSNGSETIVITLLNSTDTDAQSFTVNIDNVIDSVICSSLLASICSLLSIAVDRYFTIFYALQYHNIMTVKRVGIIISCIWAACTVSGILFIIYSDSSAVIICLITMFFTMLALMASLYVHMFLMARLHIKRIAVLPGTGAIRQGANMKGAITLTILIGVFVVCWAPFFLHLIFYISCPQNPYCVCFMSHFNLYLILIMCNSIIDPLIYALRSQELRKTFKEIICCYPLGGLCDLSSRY

In the case of `C[C@]12CCC(=O)C[C@@H]1CC[C@@H]1[C@@H]2CC[C@]2(C)[C@@H](O)CC[C@@H]12` [STANOLONE], the IC50 entry in assay [1] (cho-k1), in assay [2], in assay [3], in assay [4], in assay [5] and in assay [6] was “Not Active” each time. The Ki result in assay [6] was “Not Active”.

With `C1CCN2C[C@@H]3C[C@@H](CN4CCCC[C@@H]34)[C@H]2C1` [SPARTEINE], the IC50 entry in assay [1] (cho-k1), in assay [2], in assay [3], in assay [4], in assay [5] and in assay [6] was “Not Active” each time. Further, in assay [6], the Ki result is reported as “Not Active”.

Take `CO[C@@H]1[C@@H](OC)[C@H](C)[C@@](O)(CC(=O)O)O[C@H]1[C@H](C)[C@H]1O[C@@]2(CC[C@@](C)([C@H]3CC[C@@](C)([C@@H]4O[C@@H]([C@H]5O[C@](C)(O)[C@H](C)C[C@@H]5C)C[C@@H]4O[C@@H]4C[C@H](OC)[C@@H](OC)[C@H](C)O4)O3)O2)C[C@H](O)[C@H]1C.N` [MADURAMICIN]: the IC50 entry in assay [1] (cho-k1), in assay [2], in assay [3], in assay [4], in assay [5] and in assay [6] was “Not Active” in each case. For the same compound, the Ki result in assay [6] is listed as “Not Active”.

Regarding `CC(N)C12CC3CC(CC(C3)C1)C2` (stereo unspecified) [RIMANTADINE], the IC50 entry in assay [1] (cho-k1), in assay [2], in assay [3], in assay [4], in assay [5] and in assay [6] was “Not Active” throughout. In addition, the Ki result in assay [6] is recorded as “Not Active”.

For the compound `CCN(CC)C(=S)SSC(=S)N(CC)CC`, the IC50 in assay [1] (read-out: IC50) was 6.01 µM; in assay [2] it was “Not Active”; in assay [3] it was “Not Active”; in assay [4], “Not Active”; in assay [5], “Not Active”; in assay [6], “Not Active”. Also, the Ki is 4.21 µM in assay [1] (read-out: Ki) and “Not Active” in assay [6].
